Experimental data reported in patent US20080057044A1, “Lactobacillus Plantarum with Body-Fat Reducing Activity and the Foods Containing Them” (priority 2004, published 2008).

system: Lactobacillus plantarum Strain PL62; experiment: Antibiotic resistance (diameter of growth inhibition); assay type: cell-based; details: not given
Excerpt: The stronger antibiotic resistance a probiotic has, the higher survivability within the intestines is. Thus, the stronger an antibiotic resistance is, the better it is. However, if an antibiotic resistance is transferred, resistance problems may be brought about. It was confirmed whether an antibiotic resistance was transferred to other bacteria or not.

| Molecule | Diameter (mm) of growth inhibition [mm] |
| --- | --- |
| CC1(C)S[C@@H]2[C@H](NC(=O)[C@H](N)c3ccccc3)C(=O)N2[C@H]1C(=O)O [Ampicillin] | 34 |
| CC1(C)S[C@@H]2[C@H](NC(=O)C(C(=O)O)c3ccccc3)C(=O)N2[C@H]1C(=O)O (some centres unmarked) [Carbenicillin] | 29 |
| CCN1CCN(C(=O)N[C@@H](C(=O)N[C@@H]2C(=O)N3C(C(=O)O)=C(CSc4nnnn4C)CS[C@H]23)c2ccc(O)cc2)C(=O)C1=O [Cefoperazone] | 22 |
| CC(=O)OCC1=C(C(=O)O)N2C(=O)[C@@H](NC(=O)Cc3cccs3)[C@H]2SC1 [Cephalothin] | 25 |
| O=C(N[C@H](CO)[C@H](O)c1ccc([N+](=O)[O-])cc1)C(Cl)Cl [Chloramphenicol] | 30 |
| CCC[C@@H]1C[C@@H](C(=O)N[C@@H]([C@H]2O[C@H](SC)[C@H](O)[C@@H](O)[C@H]2O)[C@H](C)Cl)N(C)C1 [Clindamycin] | 20 |
| CC[C@H]1OC(=O)[C@H](C)[C@@H](O[C@H]2C[C@@](C)(OC)[C@@H](O)[C@H](C)O2)[C@H](C)[C@@H](O[C@@H]2O[C@H](C)C[C@H](N(C)C)[C@H]2O)[C@](C)(O)C[C@@H](C)C(=O)[C@H](C)[C@@H](O)[C@]1(C)O [Erythromycin] | 32 |
| Cc1onc(-c2ccccc2)c1C(=O)N[C@@H]1C(=O)N2[C@@H]1SC(C)(C)[C@@H]2C(=O)O [Oxacillin] | 11 |
| CCN1CCN(C(=O)N[C@@H](C(=O)N[C@@H]2C(=O)N3[C@@H]2SC(C)(C)[C@@H]3C(=O)O)c2ccccc2)C(=O)C1=O [Piperacilin] | 37 |
| CO[C@H]1/C=C/O[C@@]2(C)Oc3c(C)c(O)c4c(O)c(c(/C=N/N5CCN(C)CC5)c(O)c4c3C2=O)NC(=O)/C(C)=C\C=C\[C@H](C)[C@H](O)[C@@H](C)[C@@H](O)[C@@H](C)[C@H](OC(C)=O)[C@@H]1C [Rifampin] | 24 |
| [H]/N=C(/N)N[C@H]1[C@H](O)[C@@H](O)[C@H](O[C@@H]2O[C@@H](C)[C@](O)(C=O)[C@H]2O[C@@H]2O[C@@H](CO)[C@H](O)[C@@H](O)[C@@H]2NC)[C@@H](N/C(N)=N\[H])[C@@H]1O [Streptomycin] | 8 |
| CN(C)[C@@H]1C(O)=C(C(N)=O)C(=O)[C@@]2(O)C(O)=C3C(=O)c4c(O)cccc4[C@@](C)(O)[C@H]3C[C@@H]12 [Tetracycline] | 24 |
| CN[C@H](CC(C)C)C(=O)N[C@H]1C(=O)N[C@@H](CC(N)=O)C(=O)N[C@H]2C(=O)N[C@H]3C(=O)N[C@H](C(=O)N[C@H](C(=O)O)c4cc(O)cc(O)c4-c4cc3ccc4O)[C@H](O)c3ccc(c(Cl)c3)Oc3cc2cc(c3O[C@@H]2O[C@H](CO)[C@@H](O)[C@H](O)[C@H]2O[C@H]2C[C@](C)(N)[C@H](O)[C@H](C)O2)Oc2ccc(cc2Cl)[C@H]1O [Vancomycin] | 6 |
| Gentamicin | 12 |
| Penicillin | 29 |
| Trimethpprime/sulfamethoxasole | 28 |

system: overweight people; experiment: not given; details: 180 overweight people, one year; cited from earlier work

| Molecule | weight loss |
| --- | --- |
| conjugated linoleic acid [CLA] | 4-10% |
